From patent US20230120597A1, “CO-AGONISTS AT GLP-1 AND GIP RECEPTORS SUITABLE FOR ORAL DELIVERY” (Novo Nordisk A/S, priority 2020, published 2023) come the findings set out here.

Starred links: 1 amine or outer side, 2 acyl side, 3 side chain; linkers in the order of their positions; H or OH if unused. Non-standard residues stand in square brackets, D forms with d. Residues, ends and D or L forms follow the SMILES beside them. Groups on a side chain read outwards from the residue. *: point of attachment. C18 diacid = O=C(O)CCCCCCCCCCCCCCCCC(=O)*; γGlu = O=C(O)[C@H](CCC(=O)[*:2])N[*:1]; εLys = N[C@@H](CCCCN[*:1])C(=O)[*:2]; Aib = CC(C)(N)C(=O)O

The nature of data set [1]: Pharmacokinetic study in minipigs after i.v. administration. The conditions noted are these: female, Gottingen, minipig, in vivo, iv. How it is done:
The purpose of this example is to determine the half-life in vivo of the derivatives of the present invention after i.v. administration to minipigs, i.e. the prolongation of their time in the body and thereby their time of action. This is done in a pharmacokinetic (PK) study, where the terminal half-life of the derivative in question is determined. By terminal half-life is generally meant the period of time it takes to halve a certain plasma concentration, measured after the initial distribution phase.
Female Gottingen minipigs were obtained from Ellegaard Gottingen Minipigs (Dalmose, Denmark) approximately 7-14 months of age and weighing from approximately 16-35 kg were used in the studies. The minipigs were housed individually and fed restrictedly once daily with SDS minipig diet (Special Diets Services, Essex, UK).
After at 3 weeks of acclimatisation two permanent central venous catheters were implanted in vena cava caudalis in each animal. […]
Plasma was pipetted into Micronic tubes on dry ice and kept at −20° C. until analysed for plasma concentration of the compounds using ELISA, or a similar antibody-based assay, or LCMS. Individual plasma concentration-time profiles were analysed by a non-compartmental model in Phoenix WinNonLin ver. […] (Pharsight Inc., Mountain View, Calif., USA), and the resulting terminal half-lives (harmonic mean) determined.

A short description of data set [2]: Pharmacokinetic study in dogs, oral dosing of tablet compositions with SNAC. Type of data set: in vivo, Beagle dogs. The conditions noted are these: male, beagle, dog, in vivo, po. The procedure, abridged:
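Male beagle dogs (9-17 kg), fasted, received a single oral tablet with 100-300 mg SNAC and 3-4 mg test substance, groups of 6-8.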

`CC[C@H](C)[C@H](NC(=O)[C@H](Cc1ccccc1)NC(=O)[C@H](CCC(=O)O)NC(=O)[C@H](CCCNC(=N)N)NC(=O)[C@H](C)NC(=O)[C@H](C)NC(=O)[C@H](CCC(N)=O)NC(=O)[C@H](CCCCNC(=O)[C@@H](N)CCCCNC(=O)[C@@H](N)CCCCNC(=O)CC[C@H](NC(=O)CCCCCCCCCCCCCCCCC(=O)O)C(=O)O)NC(=O)[C@H](CCC(=O)O)NC(=O)[C@H](CC(C)C)NC(=O)[C@H](CC(C)C)NC(=O)[C@@H](NC(=O)[C@H](CO)NC(=O)[C@H](Cc1ccc(O)cc1)NC(=O)[C@H](CC(=O)O)NC(=O)[C@H](CO)NC(=O)[C@@H](NC(=O)[C@H](Cc1ccccc1)NC(=O)[C@@H](NC(=O)CNC(=O)[C@H](CCC(=O)O)NC(=O)C(C)(C)NC(=O)[C@@H](N)Cc1ccc(O)cc1)[C@@H](C)O)[C@@H](C)O)[C@@H](C)CC)C(=O)N[C@@H](CC(N)=O)C(=O)N[C@@H](Cc1c[nH]c2ccccc12)C(=O)N[C@@H](CC(C)C)C(=O)N[C@@H](CC(C)C)C(=O)N[C@@H](C)C(=O)NCC(=O)NCC(=O)N1CCC[C@H]1C(=O)N[C@@H](CO)C(=O)N[C@@H](CO)C(=O)NCC(=O)N[C@@H](C)C(=O)N1CCC[C@H]1C(=O)N1CCC[C@H]1C(=O)N1CCC[C@H]1C(=O)N[C@@H](CO)C(=O)O` [Compound No. 15] (H-Y[Aib]EGTFTSDYSILLEK([εLys-εLys-γGlu-C18 diacid])QAAREFINWLLAGGPSSGAPPPS-OH): the figures for the half-life in data set [1] and in data set [2] (t1/2) were 36 h and 59 h, respectively. In data set [2] (Tmax), the Tmax (usually the time at which the peak concentration occurs) was 1.5 h.
